Source: ChEMBL document CHEMBL1125697, “Synthesis and pharmacological examination of 1-(3-methoxy-4-methylphenyl)-2-aminopropane and 5-methoxy-6-methyl-2-aminoindan: similarities to 3,4-(methylenedioxy)methamphetamine (MDMA)” (J Med Chem, 1991)
Values joined by “and” are separate entries in the source; they are usually repeats but may differ in a detail not shown here. Identical values can stand only once.

What was measured:
Format in all cases: functional
Rattus norvegicus [1] = organism: Rattus norvegicus; assay: Effective dose was evaluated for drug discrimination in I-trained rats
Rattus norvegicus [2] = assay: Effective dose was evaluated for drug discrimination in I-trained rats, when given at a dose of 2.32 micro mol/kg
Rattus norvegicus [3] = assay: Effective dose was evaluated for drug discrimination in I-trained rats, when given at a dose of 0.25 mg/kg; settings: Rattus norvegicus; read-out: ED50
Rattus norvegicus [4] = assay: Effective dose was evaluated for drug discrimination in I-trained rats, when given at a dose of 0.5 mg/kg
Rattus norvegicus [5] = assay: Effective dose was evaluated for drug discrimination in I-trained rats, when given at a dose of 1.16 micro mol/kg
Rattus norvegicus [6] = organism: Rattus norvegicus; assay: Compound was evaluated for the uptake inhibition of [3H]-5-HT in rats
Rattus norvegicus [7] = assay: Percentage of non disrupted rats that selected the drug lever, when given at a dose of 0.25 mg/kg
Rattus norvegicus [8] = assay: Percentage of non disrupted rats that selected the drug lever, when given at a dose of 0.5 mg/kg
Rattus norvegicus [9] = assay: Percentage of non disrupted rats that selected the drug lever, when given at a dose of 1.50 mg/kg; settings: dose 1.5 mg/kg
Rattus norvegicus [10] = assay: Percentage of non disrupted rats that selected the drug lever, when given at a dose of 1.00 mg/kg

| Compound | ED50 (Rattus norvegicus [1]) | ED50 (Rattus norvegicus [2]) | ED50 (Rattus norvegicus [3]) | ED50 (Rattus norvegicus [4]) | ED50 (Rattus norvegicus [5]) | IC50 (Rattus norvegicus [6]) | SDL (Rattus norvegicus [7]) | SDL (Rattus norvegicus [8]) | SDL (Rattus norvegicus [9]) | SDL (Rattus norvegicus [10]) |
| --- | --- | --- | --- | --- | --- | --- | --- | --- | --- | --- |
| CNC(C)Cc1ccc2c(c1)OCO2 (stereo not given) [MIDOMAFETAMINE] | 0.64 mg/kg and 2.79 µmol/kg | – | – | – | – | – | – | – | – | – |
| COc1cc(C[C@@H](C)N)ccc1C | – | 2.12 µmol/kg | 0.46 mg/kg | 0.46 mg/kg | 2.12 µmol/kg | 200 nM | 33% | 38% | 100% | 75% |
